Results on one compound are retold here after paper doi:10.1101/2023.02.27.530254, “Large library docking for cannabinoid-1 receptor agonists with reduced side effects” (bioRxiv, 2024).

Some results are limits rather than exact numbers.

The assay deals with melatonin-1 (MT1R), ghrelin (GHSR), Sigma1 and peripheral benzodiazepine receptors. Nature of the assay: PDSP off-target secondary validation (dose response) assays. The format is cell-based. The note with it: read-out: EC50 at off-target receptors (weak partial agonism). How it is done:
Compound ‘4042 was tested at 10 μM for off-target activity against a panel of 320 non-olfactory GPCRs using PRESTO-Tango GPCRome arrestin-recruitment assay, as described. Receptors with at least three-fold increased relative luminescence over corresponding basal activity are potential positive hits, and were tested in dose response follow-up studies. Compound ‘4042 was further tested at 1 μM for off-target activity at a panel of 45 common GPCR and non-GPCR drug targets. Receptors with at least 50% displaced radioligand are potential positive hits and were tested in dose response follow-up studies. Screening was performed by the National Institutes of Mental Health Psychoactive Drug Screen Program (PDSP)[81].

What is called EC50 is the concentration giving half of the maximal effect. Regarding `COC(=O)C(C)(NC(=O)c1cc(C)n(-c2cccc(C(F)(F)F)c2)n1)c1cccs1` (stereo not shown) [‘4042], the half-maximal effective concentration (EC50) is over 1000 nM.
